Data on 22 molecules can be found in patent US20240132475A1, “SUBSTITUTED PYRAZOLYL COMPOUNDS AS MALT-1 INHIBITORS” (AURIGENE ONCOLOGY LIMITED, priority 2021, published 2024).

One may read the IC50 as the concentration that gives 50% inhibition. Read a low IC50 as greater potency in that assay. Usually inhibition stands for the percentage by which the read-out fell short of the control.

The experiment addresses T1, MALT-1 (Isoform 1) (Homo sapiens, UniProt Q9UDY8).
T1 construct: using recombinant MALT-1 (Isoform 1, aa-840) generated in house; made in house
T1 sequence (Q9UDY8 1-824): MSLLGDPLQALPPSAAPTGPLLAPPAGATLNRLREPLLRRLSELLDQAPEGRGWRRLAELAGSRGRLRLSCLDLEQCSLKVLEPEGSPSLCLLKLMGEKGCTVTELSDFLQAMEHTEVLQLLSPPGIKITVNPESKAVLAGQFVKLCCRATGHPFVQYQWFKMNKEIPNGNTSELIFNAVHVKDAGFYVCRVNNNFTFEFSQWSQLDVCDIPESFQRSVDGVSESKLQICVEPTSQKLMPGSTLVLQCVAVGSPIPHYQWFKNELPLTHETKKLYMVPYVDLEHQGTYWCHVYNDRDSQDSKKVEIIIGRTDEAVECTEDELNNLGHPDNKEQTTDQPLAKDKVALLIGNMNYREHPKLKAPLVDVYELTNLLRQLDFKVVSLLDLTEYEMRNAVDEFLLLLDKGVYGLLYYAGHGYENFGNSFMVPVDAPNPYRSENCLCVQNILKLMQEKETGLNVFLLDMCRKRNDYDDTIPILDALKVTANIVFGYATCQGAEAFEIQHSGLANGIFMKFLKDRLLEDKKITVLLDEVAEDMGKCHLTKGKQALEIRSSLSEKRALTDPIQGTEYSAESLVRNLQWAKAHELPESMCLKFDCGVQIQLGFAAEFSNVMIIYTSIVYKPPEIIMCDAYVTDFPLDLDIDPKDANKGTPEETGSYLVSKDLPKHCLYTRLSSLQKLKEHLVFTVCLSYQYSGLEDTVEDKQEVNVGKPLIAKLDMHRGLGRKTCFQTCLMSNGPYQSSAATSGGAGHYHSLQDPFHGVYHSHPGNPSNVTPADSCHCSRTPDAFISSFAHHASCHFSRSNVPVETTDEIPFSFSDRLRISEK
In words: MALT-1 (Isoform 1) enzyme fluorescent biochemical assay. The conditions noted are these: for IC50: dose-response, sigmoidal curve fit, reported as groups A, B, C; for inhibition at 1 µM: read-out: Percent Inhibition (1 μM). The protocol:
The potency of compounds to inhibit MALT-1 (Isoform 1) enzyme was tested in a Fluorescent assay using recombinant MALT-1 (Isoform 1, aa-840) generated in house. The assay buffer was 50 mM HEPES (pH 7.5), 100 mM NaCl, 10 mM DTT, 1 mM EDTA, 0.9 M sodium citrate, 0.01% CHAPS. 1.5 nM of MALT-1 enzyme was incubated with test compounds ([…]) (1% DMSO) in the presence of buffer for 30 minutes at 30° C. The protease reaction was initiated by adding […] of AC-LRSR-MAC (Peptide International, USA) substrate and incubated for 240 min. After 240 min incubation, fluorescence emission of the samples at 460 nm was measured at an excitation of 355 nm. The percent inhibition was calculated using the following formula: […]. IC50 values were determined by fitting the dose-response data to sigmoidal curve fitting equation using Graph pad prism software V8.
ND represents Not Determined.

[1] abbreviates: test compound 1 μM, recombinant MALT-1 1.5 nM.

For `Cc1c(F)cccc1Cn1ncc(C(=O)Nc2cnc(-n3nccn3)c(F)c2)c1C(F)(F)F` [Compound 30, 1-(3-fluoro-2-methylbenzyl)-N-(5-fluoro-6-(2H-1,2,3-triazol-2-yl)pyridin-3-y1)-5-(trifluoromethyl)-1H-pyrazole-4-carboxamide], the IC50 is 0.251 to 1 µM. Further, the inhibition at 1 µM under setting [1] is 97%.

As for `N#Cc1cc(NC(=O)c2cnn(Cc3ccncc3)c2C(F)(F)F)cnc1-n1nccn1` [Compound 13, N-(5-cyano-6-(2H-1,2,3-triazol-2-yl)pyridin-3-yl)-1-(pyridin-4-ylmethyl)-5-(trifluoromethyl)-1H-pyrazole-4-carboxamide], the IC50 is above 1 µM. For the same molecule, the inhibition at 1 µM under setting [1] came out at 40%.

`N#Cc1cc(NC(=O)c2cnn(Cc3cccnc3)c2C(F)(F)F)cnc1-n1nccn1` [Compound 18, N-(5-cyano-6-(2H-1,2,3-triazol-2-yl)pyridin-3-yl)-1-(pyridin-3-ylmethyl)-5-(trifluoromethyl)-1H-pyrazole-4-carboxamide]: the IC50 is above 1 µM. Also, under setting [1], the inhibition at 1 µM is 47%.

Molecule `O=C(Nc1cncc(C(F)(F)F)c1)c1cnn(Cc2cccc(F)c2Cl)c1C(F)(F)F` [Compound 42, 1-(2-chloro-3-fluorobenzyl)-5-(trifluoromethyl)-N-(5-(trifluoromethyl)pyridin-3-yl)-1H-pyrazole-4-carboxamide] registered a concentration for half-maximal inhibition (IC50) of 0.251 to 1 µM. The inhibition at 1 µM under setting [1] amounted to 71%.

`CCC(c1cccc(F)c1)n1ncc(C(=O)Nc2cnc(-n3nccn3)c(C#N)c2)c1C(F)(F)F` (stereo not drawn) [Compound 6, N-(5-cyano-6-(2H-1,2,3-triazol-2-yl)pyridin-3-y1)-1-(1-(3-fluorophenyl)propyl)-5-(trifluoromethyl)-1H-pyrazole-4-carboxamide] displayed an IC50 of 0.251 to 1 µM. Moreover, under setting [1], the inhibition at 1 µM amounted to 81%.

In the case of `CC(c1ccccc1)n1ncc(C(=O)Nc2cnc(-n3nccn3)c(C#N)c2)c1C(F)(F)F` (racemic) [Compound 2, N-(5-cyano-6-(2H-1,2,3-triazol-2-yl)pyridin-3-yl)-1-(1-phenylethyl)-5-(trifluoromethyl)-1H-pyrazole-4-carboxamide], the IC50 was below 0.25 µM. Further, the inhibition at 1 µM under setting [1] is 96%.

The molecule `COc1cc(F)cc(Cn2ncc(C(=O)Nc3cnc(-n4nccn4)c(C#N)c3)c2C(F)(F)F)c1` [Compound 35, N-(5-cyano-6-(2H-1,2,3-triazol-2-yl)pyridin-3-yl)-1-(3-fluoro-5-methoxybenzyl)-5-(trifluoromethyl)-1H-pyrazole-4-carboxamide] showed an IC50 above 1 µM. The inhibition at 1 µM under setting [1] worked out at 42%.

On to `N#Cc1cc(NC(=O)c2cnn(Cc3cccc(F)c3Cl)c2C(F)(F)F)cnc1-c1ccsc1` [Compound 55, 1-(2-chloro-3-fluorobenzyl)-N-(5-cyano-6-(thiophen-3-y1)pyridin-3-y1)-5-(trifluoromethyl)-1H-pyrazole-4-carboxamide], for which the IC50 was 0.251 to 1 µM. Further, under setting [1], the inhibition at 1 µM came to 63%.

`CC(c1ccccc1)n1ncc(C(=O)Nc2cnc(-n3nccn3)c(Cl)c2)c1C(F)(F)F` (single isomer, unassigned) [Compound 5b]: the IC50 is below 0.25 µM. For the same molecule, under setting [1], the “Percent Inhibition (1 μM)” value came to 99%.

In turn, `O=C(Nc1cc(C(F)(F)F)ccn1)c1cnn(Cc2cccc(F)c2Cl)c1C(F)(F)F` [Compound 46, 1-(2-chloro-3-fluorobenzyl)-5-(trifluoromethyl)-N-(4-(trifluoromethyl)pyridin-2-yl)-1H-pyrazole-4-carboxamide] yielded an IC50 above 1 µM. For the same molecule, under setting [1], the inhibition at 1 µM came to 32%.

In turn, `N#Cc1cccc(Cn2ncc(C(=O)Nc3cnc(-n4nccn4)c(C#N)c3)c2C(F)(F)F)c1` [Compound 12, N-(5-cyano-6-(2H-1,2,3-triazol-2-yl)pyridin-3-y1)-1-(3-cyanobenzyl)-5-(trifluoromethyl)-1H-pyrazole-4-carboxamide] had an IC50 below 0.25 µM. For the same molecule, under setting [1], the inhibition at 1 µM turned out to be 98%.

Take `CC(c1cccc(F)c1)n1ncc(C(=O)Nc2cnc(-n3nccn3)c(Cl)c2)c1C(F)(F)F` (racemic) [Compound 4, N-(5-chloro-6-(2H-1,2,3-triazol-2-yl)pyridin-3-yl)-1-(1-(3-fluorophenyl)ethyl)-5-(trifluoromethyl)-1H-pyrazole-4-carboxamide]: the 50% inhibitory concentration (IC50) is 0.251 to 1 µM. The inhibition at 1 µM under setting [1] stood at 77%.

The molecule `N#Cc1cc(NC(=O)c2cnn(Cc3cccc(F)c3Cl)c2C(F)(F)F)cnc1-c1ccoc1` [Compound 54, 1-(2-chloro-3-fluorobenzyl)-N-(5-cyano-6-(furan-3-yl)pyridin-3-y1)-5-(trifluoromethyl)-1H-pyrazole-4-carboxamide] registered an IC50 of 0.251 to 1 µM. Moreover, the inhibition at 1 µM under setting [1] turned out to be 77%.

`N#Cc1cc(NC(=O)c2cnn(Cc3cccc(F)c3)c2C(F)(F)F)cnc1-n1nccn1` [Compound 15, N-(5-cyano-6-(2H-1,2,3-triazol-2-yl)pyridin-3-y1)-1-(3-fluorobenzy1)-5-(trifluoromethyl)-1H-pyrazole-4-carboxamide] gave an IC50 below 0.25 µM. The inhibition at 1 µM under setting [1] turned out to be 99%.

Regarding `N#Cc1cc(NC(=O)c2cnn(Cc3ccc(F)cc3)c2C(F)(F)F)cnc1-n1nccn1` [Compound 10, N-(5-cyano-6-(2H-1,2,3-triazol-2-yl)pyridin-3-yl)-1-(4-fluorobenzyl)-5-(trifluoromethyl)-1H-pyrazole-4-carboxamide], the IC50 is above 1 µM. For the same molecule, the inhibition at 1 µM under setting [1] was found to be 44%.

As to `COc1cccc(Cn2ncc(C(=O)Nc3cnc(-n4nccn4)c(C#N)c3)c2C(F)(F)F)c1` [Compound 17, N-(5-cyano-6-(2H-1,2,3-triazol-2-yl)pyridin-3-y1)-1-(3-methoxybenzyl)-5-(trifluoromethyl)-1H-pyrazole-4-carboxamide], under “test compound 10 μM (stated in the cell), recombinant MALT-1 1.5 nM, read-out: Percent Inhibition (10 μM)”, the inhibition at 10 µM was 48%.

For the molecule `N#Cc1cc(NC(=O)c2cnn(Cc3cccc(F)c3Br)c2C(F)(F)F)cnc1-n1nccn1` [Compound 38, 1-(2-bromo-3-fluorobenzy1)-N-(5-cyano-6-(2H-1,2,3-triazol-2-yl)pyridin-3-yl)-5-(trifluoromethyl)-1H-pyrazole-4-carboxamide], the 50% inhibitory concentration (IC50) was below 0.25 µM. Besides, the inhibition at 1 µM under setting [1] turned out to be 100%.

Take `COc1ncc(NC(=O)c2cnn(Cc3cccc(F)c3)c2C(F)(F)F)cc1Cl` [Compound 22, N-(5-chloro-6-methoxypyridin-3-yl)-1-(3-fluorobenzyl)-5-(trifluoromethyl)-1H-pyrazole-4-carboxamide]: the inhibition at 1 µM under setting [1] was found to be 41%.

With `N#Cc1cc(NC(=O)c2cnn(Cc3cc(F)cc(F)c3)c2C(F)(F)F)cnc1-n1nccn1` [Compound 36, N-(5-cyano-6-(2H-1,2,3-triazol-2-y1)pyridin-3-yl)-1-(3,5-difluorobenzyl)-5-(trifluoromethyl)-1H-pyrazole-4-carboxamide], the IC50 was in the range of 0.251 to 1 µM. For the same molecule, the inhibition at 1 µM under setting [1] came out at 86%.

For the molecule `N#Cc1cc(NC(=O)c2cnn(Cc3cccc(C(F)(F)F)c3)c2C(F)(F)F)cnc1-n1nccn1` [Compound 14, N-(5-cyano-6-(2H-1,2,3-triazol-2-yl)pyridin-3-y1)-5-(trifluoromethyl)-1-(3-(trifluoromethyl)benzyl)-1H-pyrazole-4-carboxamide], the IC50 is above 1 µM. Also, the inhibition at 1 µM under setting [1] was found to be 67%.

On to `O=C(Nc1cnc(-n2nccn2)c(Cl)c1)c1cnn(Cc2cccc(F)c2Cl)c1C(F)(F)F` [Compound 34, 1-(2-chloro-3-fluorobenzy1)-N-(5-chloro-6-(2H-1,2,3-triazol-2-yl)pyridin-3-yl)-5-(trifluoromethyl)-1H-pyrazole-4-carboxamide], for which the IC50 was below 0.25 µM. For the same molecule, the inhibition at 1 µM under setting [1] was found to be 99%.

`N#Cc1cc(NC(=O)c2cnn(Cc3cccc(Cl)c3)c2C(F)(F)F)cnc1-n1nccn1` [Compound 8, 1-(3-chlorobenzyl)-N-(5-cyano-6-(2H-1,2,3-triazol-2-y1)pyridin-3-yl)-5-(trifluoromethyl)-1H-pyrazole-4-carboxamide] gave an IC50 below 0.25 µM. Further, the inhibition at 1 µM under setting [1] was 87%.
